# Results from patent US11371055B2, “Herbicide resistance genes” (CORTEVA AGRISCIENCE LLC, priority 2005, dated 2022).
# Tests used:
# wildtype KY160 tobacco = experiment: Cross tolerance test, wildtype tobacco; format: in vivo, Nicotiana tabacum
# Excerpt: Two to four T0 individuals surviving high rates of 2,4-D and fluroxypyr were saved from each event and allowed to self fertilize in the greenhouse to give rise to T1 seed. The T1 seed was stratified, and sown into selection trays much like that of Arabidopsis (Example 7.4), followed by selective removal of untransformed nulls in this segregating population with 560 g ai/ha glufosinate (PAT gene selection). Survivors were transferred to individual 3-inch pots in the greenhouse. These lines provided high levels of resistance to 2,4-D in the T0 generation. Improved consistency of response is anticipated in T1 plants not having come directly from tissue culture. These plants were compared against wildtype KY160 tobacco. All plants were sprayed with a track sprayer set at 187 L/ha. The plants were sprayed from a range of 140-2240 g ac/ha 2,4-D dimethylamine salt (DMA), 70-1120 g ace/ha triclopyr or 35-560 g ae/ha fluroxypyr. All applications were formulated in water. Each treatment was replicated 2-4 times. Plants were evaluated at 3 and 14 days after treatment. Plants were assigned injury rating with respect to stunting, chlorosis, and necrosis. The T1 generation is segregating, so some variable response is expected due to difference in zygosity.
# [1] = system: AAD-12 (v1) tobacco lines (pDAS1580-[1]-018.001, pDAS1580-[1]-004.001, pDAS1580-[1]-020.016); experiment: Field tolerance of tobacco, AAD-12 lines; format: in vivo, Nicotiana tabacum
# Procedure: (§1) Field level tolerance trials were conducted on three AAD-12 (v1) lines (events pDAS1580-[1]-018.001, pDAS1580-[1]-004.001 and pDAS1580-[1]-020.016) and one wild-type line (KY160) at field stations in Indiana and Mississippi. Tobacco transplants were grown in the greenhouse by planting T1 seed in 72 well transplant flats (Hummert International) containing Metro 360 media according to growing conditions indicated above. The null plants were selectively removed by Liberty selection as previously described. The transplant plants were transported to the field stations and planted at either 14 or 24 inches apart using industrial vegetable planters. Drip irrigation at the Mississippi site and overhead irrigation at the Indiana site were used to keep plants growing vigorously.
# (§2) The experimental design was a split plot design with 4 replications. The main plot was herbicide treatment and the sub-plot was tobacco line. The herbicide treatments were 2,4-D (dimethylamine salt) at 280, 560, 1120, 2240 and 4480 g ac/ha, triclopyr at 840 g ae/ha, fluroxypyr at 280 g ac/ha and an untreated control. Plots were one row by 25-30 ft. Herbicide treatments were applied 3-4 weeks after transplanting using compressed air backpack sprayer delivering 187 L/ha carrier volume at 130-200 kpa pressure. Visual rating of injury, growth inhibition, and epinasty were taken at 7, 14 and 21 days after treatment.
# [2] = system: wild-type tobacco line (KY160); experiment: Field tolerance of tobacco, wild-type line; format: in vivo, Nicotiana tabacum
# Procedure: as §1, §2
# [3] = system: AAD-12 (v1) (pDAS1580) T2 tobacco plants; experiment: Auxinic herbicide cross tolerance of stacked tobacco, AAD-12 T2; format: in vivo, Nicotiana tabacum
# Procedure: (§3) Homozygous AAD-12 (v1) (pDAS1580) and AAD-1 (v3) (pDAB721) plants (see PCT/US2005/014737 for the latter) were both reciprocally crossed and F1 seed was collected. The F1 seed from two reciprocal crosses of each gene were stratified and treated 4 reps of each cross were treated under the same spray regimen as used for the other testing with one of the following treatments: 70, 140, 280 g ac/ha fluroxypyr (selective for the AAD-12 (v1) gene); 280, 560, 1120 g ae/ha R-dichloroprop (selective for the AAD-1 (v3) gene); or 560, 1120, 2240 g ae/ha 2,4-D DMA (to confirm 2,4-D tolerance). Homozygous T2 plants of each gene were also planted for use as controls. Plants were graded at 3 and 14 DAT.
# [4] = system: AAD-1 (v3) (pDAB721) T2 tobacco plants; experiment: Auxinic herbicide cross tolerance of stacked tobacco, AAD-1 T2; format: in vivo, Nicotiana tabacum
# Procedure: as §3
# [5] = system: AAD-12 x AAD-1 F1 cross tobacco; experiment: Auxinic herbicide cross tolerance of stacked tobacco, F1 cross; format: in vivo, Nicotiana tabacum; conditions: AAD-12 (v1) x AAD (v3) F1
# Procedure: as §3
# [6] = system: AAD-12 (v1) canola events 3759(20)018.001 and 3759(18)030.001; experiment: Field tolerance of canola, AAD-12 events; format: in vivo, Brassica napus
# Procedure: Field level tolerance trial was conducted on two AAD-12 (v1) events 3759(20)018.001 and 3759(18)030.001 and a wild-type canola (Nex710) in Fowler, Ind. The experimental design was a randomized complete block design with 3 replications. Herbicide treatments were 2,4-D (dimethylamine salt) at 280, 560, 1120, 2240 and 4480 g ac/ha, triclopyr at 840 g ae/ha, fluroxypyr at 280 g ae/ha and an untreated control. Within each herbicide treatment, single 20 ft row/event for event 3759(18)030.0011, 3759(18)018.001 and wild-type line (Nex710) were planted with a 4 row drill on 8 inch row spacing. Herbicide treatments were applied when canola reached the 4-6 leaf stage using compressed air backpack sprayer delivering 187 L/ha carrier volume at 130-200 kpa pressure. […]
# [7] = Fluroxypyr at 280 g ae/ha, 14 DAT
compound,measurement,setting,value
Nc1c(Cl)c(F)nc(OCC(=O)O)c1Cl [Fluroxypyr],Average % Injury of Replicates 14 DAT,wildtype KY160 tobacco; 35 g ae/ha,85%
same,Average % Injury of Replicates 14 DAT,wildtype KY160 tobacco; 140 g ae/ha,93%
same,Average % Injury of Replicates 14 DAT,wildtype KY160 tobacco; 560 g ae/ha,100%
same,average injury,[1]; [7],11%
same,Average % Injury across locations at 14 DAT,"[1]; pDAS1580-[1]-004.001, 280 GM AE/HA",11%
same,Average % Injury across locations at 14 DAT,"[1]; pDAS1580-[1]-018.001, 280 GM AE/HA",12%
same,Average % Injury across locations at 14 DAT,"[1]; pDAS1580-[1]-020.016, 280 GM AE/HA",11%
same,injury,[2]; [7],99%
same,Average % Injury across locations at 14 DAT,"[2]; Wild type, 280 GM AE/HA",99%
same,Average % injury 14 DAT,[3]; 70 g ae/ha,0%
same,Average % injury 14 DAT,[3]; 140 g ae/ha,0%
same,Average % injury 14 DAT,[4]; 70 g ae/ha,40%
same,Average % injury 14 DAT,[4]; 140 g ae/ha,60%
same,Average % injury 14 DAT,[5]; 70 g ae/ha,0%
same,Average % injury 14 DAT,[5]; 140 g ae/ha,0%
same,% Visual Injury at 14 DAT,"[6]; AAD-12 event 3759(18)030.001, 280 GM AE/HA",8 a %
same,% Visual Injury at 14 DAT,"[6]; AAD-12 event 3759(20)018.001, 280 GM AE/HA",7 a %
same,average injury,"[6]; Fluroxypyr at 280 g ae/ha, 5DAT",8%
